Data reported in ChEMBL document CHEMBL3797144, “2,8-Diazaspiro[4.5]decan-8-yl)pyrimidin-4-amine potent CCR4 antagonists capable of inducing receptor endocytosis” (Eur J Med Chem, 2016).
Values after ≈ are worked out from the molar mass of the structure shown.

Columns and labels:
[1] = target: T1, C-C chemokine receptor type 4 (Homo sapiens, UniProt P51679); experiment: Antagonist activity at CCR4 in human PBMC assessed as inhibition of actin polymerization by flow cytometry; settings: read-out: pA2 (converted)
T1 sequence (P51679 whole entry): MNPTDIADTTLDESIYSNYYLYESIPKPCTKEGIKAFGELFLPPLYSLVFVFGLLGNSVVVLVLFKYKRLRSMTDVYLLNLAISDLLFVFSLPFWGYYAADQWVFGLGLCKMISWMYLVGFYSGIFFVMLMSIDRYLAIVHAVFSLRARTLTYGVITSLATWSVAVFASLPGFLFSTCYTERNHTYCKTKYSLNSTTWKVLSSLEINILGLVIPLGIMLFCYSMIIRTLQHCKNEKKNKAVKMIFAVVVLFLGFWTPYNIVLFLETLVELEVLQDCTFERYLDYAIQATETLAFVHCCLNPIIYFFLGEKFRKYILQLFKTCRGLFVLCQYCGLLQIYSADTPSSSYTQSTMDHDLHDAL

[2] = target: T1, C-C chemokine receptor type 4; experiment: Antagonist activity at human CCR4 expressed in CHO cells by [35S]GTPgammaS assay; assay type: functional, cell-based
[3] = target: T1, C-C chemokine receptor type 4; experiment: Displacement of [125I]-TARC from human recombinant CCR4 expressed in CHO cell membranes by scintillation counting method
[4] = Kinetic solubility of the compound by chemiluminescent nitrogen detection assay; assay type: physicochemical; settings: read-out: Kinetic_solubility
[5] = target: T1, C-C chemokine receptor type 4; experiment: (§1) Induction of CCR4 internalisation in human HUT78 cells after 30 mins by flow cytometry; assay type: functional, cell-based
[6] = target: T2, C-C chemokine receptor type 4 (Homo sapiens) (UniProt P51679); experiment: as §1; assay type: functional, cell-based
T2 sequence (whole entry): T1 sequence (P51679 whole entry)

[7] = target: T2, C-C chemokine receptor type 4 (Homo sapiens); experiment: Induction of CCR4 internalisation in human HUT78 cells at 10 nM after 30 mins by flow cytometry; assay type: functional, cell-based
[8] = Clearance in rat at 1 mg/kg; assay type: ADME, organism-based; settings: in vivo
[9] = Half life in rat at 1 mg/kg; assay type: ADME, organism-based; settings: in vivo
[10] = Plasma protein binding in human; assay type: ADME, cell-free; settings: read-out: PPB (converted)
Rattus norvegicus = experiment: Clearance in rat at 1 mg/kg relative to liver blood flow; assay type: ADME, organism-based; settings: in vivo
[11] = Volume of distribution in rat at 1 mg/kg; assay type: ADME, organism-based; settings: in vivo

SMILES	Ki [3]	solubility kinetic [4]	also measured
O=C([C@H]1CCCCN1)N1CCN(c2nccc(NCc3ccc(Cl)cc3Cl)n2)CC1	2.51 nM	140 µg/mL (≈ 312 µM)	Kb [1]: 174 nM; IC50 [2]: 7.94 nM
COc1cc2nc(N3CCC(N(C)C(=O)[C@H]4CCCN4)CC3)nc(Nc3ccc(Cl)cc3F)c2cc1OC	–	–	EC50 [5]: 398 nM
O=C(C1CCCCC1)N1CCC2(CCN(c3nccc(NCc4ccc(Cl)cc4Cl)n3)CC2)C1	631 nM	3 µg/mL (≈ 5.97 µM)	–
O=C([C@@H]1CCCCN1)N1CCC2(CCN(c3nccc(NCc4ccc(Cl)cc4Cl)n3)CC2)C1	20 nM	170 µg/mL (≈ 338 µM)	–
Cl.Cl.Clc1ccc(CNc2ccnc(N3CCC4(CCNC4)CC3)n2)c(Cl)c1	316 nM	144 µg/mL	–
CNCC(=O)N1CCC2(CCN(c3nccc(NCc4ccc(Cl)cc4Cl)n3)CC2)C1.O=C(O)C(F)(F)F.O=C(O)C(F)(F)F	126 nM	138 µg/mL	–
O=C([C@H]1CCCCN1)N1CCC2(CCN(c3nccc(NCc4ccc(Cl)cc4Cl)n3)CC2)C1	25.1 nM	172 µg/mL (≈ 342 µM)	–
Clc1ccc(CNc2ccnc(N3CCC4(CCN(C[C@@H]5CCCN5)C4)CC3)n2)c(Cl)c1	3.98 nM	56 µg/mL (≈ 118 µM)	Activity [6]: 56%; EC50 [5]: 12.6 nM
O=C(c1ccccn1)N1CCC2(CCN(c3nccc(NCc4ccc(Cl)cc4Cl)n3)CC2)C1	100 nM	17 µg/mL (≈ 34.2 µM)	–
O=C([C@H]1CCCN1)N1CCC2(CCN(c3nccc(NCc4ccc(Cl)cc4Cl)n3)CC2)C1	15.8 nM	180 µg/mL (≈ 368 µM)	–
Clc1ccc(CNc2ccnc(N3CCC4(CCN(C[C@H]5CCCN5)C4)CC3)n2)c(Cl)c1	5.01 nM	16 µg/mL (≈ 33.7 µM)	Activity [6]: 64%; EC50 [5]: 6.31 nM
O=C([C@@H]1CCCN1)N1CCC2(CCN(c3nccc(NCc4ccc(Cl)cc4Cl)n3)CC2)C1	100 nM	165 µg/mL (≈ 337 µM)	–
C[N+]1(C2CCN(c3ncc(-c4ccc(F)cc4F)c(NCc4ccc(F)cc4F)n3)CC2)CCCCC1	–	–	Activity [7]: 50%
Clc1ccc(CNc2ccnc(N3CCC4(CCN(CC5CCCCN5)C4)CC3)n2)c(Cl)c1 (racemic)	2.51 nM	182 µg/mL (≈ 372 µM)	–
CN(Cc1ccc(Cl)cc1Cl)c1ccnc(N2CCC3(CCN(CC4CCCN4)C3)CC2)n1 (racemic)	1 nM	141 µg/mL (≈ 288 µM)	Kb [1]: 1000 nM; IC50 [2]: 7.94 nM; Activity [6]: 74%; EC50 [5]: 158 nM
O=C(C1CCCN1)N1CCC2(CCN(c3nccc(NCc4ccc(Cl)cc4Cl)n3)CC2)C1 (racemic)	25.1 nM	79 µg/mL (≈ 161 µM)	–
O=C(C1CCNC1)N1CCC2(CCN(c3nccc(NCc4ccc(Cl)cc4Cl)n3)CC2)C1.O=C(O)C(F)(F)F (racemic)	50.1 nM	339 µg/mL	–
O=C(C1CCCNC1)N1CCC2(CCN(c3nccc(NCc4ccc(Cl)cc4Cl)n3)CC2)C1 (racemic)	50.1 nM	186 µg/mL (≈ 369 µM)	–
Clc1ccc(CNc2ccnc(N3CCC4(CCN(CC5CCCN5)C4)CC3)n2)c(Cl)c1 (racemic)	1.58 nM	270 µg/mL (≈ 568 µM)	Kb [1]: 200 nM; clearance [8]: 15 mL/min/kg; half-life [9]: 240 min; IC50 [2]: 7.94 nM; fraction unbound [10]: 0.068; CL (Rattus norvegicus): 18%; Vd [11]: 5 L/kg
CN(Cc1ccc(Cl)cc1Cl)c1ccnc(N2CCC3(CCN(C(=O)C4CCCN4)C3)CC2)n1 (racemic)	25.1 nM	190 µg/mL (≈ 377 µM)	–
Fc1ccc(CNc2ccnc(N3CCC4(CCN(CC5CCCN5)C4)CC3)n2)c(F)c1 (racemic)	3.16 nM	160 µg/mL (≈ 362 µM)	IC50 [2]: 7.94 nM; Activity [6]: 62%; EC50 [5]: 15.8 nM
O=C(C1CCCN1)N1CCC2(CCN(c3nccc(NCc4ccc(F)cc4F)n3)CC2)C1 (racemic)	25.1 nM	175 µg/mL (≈ 383 µM)	–
O=C(C1COCCN1)N1CCC2(CCN(c3nccc(NCc4ccc(Cl)cc4Cl)n3)CC2)C1 (racemic)	–	233 µg/mL (≈ 461 µM)	–
